Measured values from patent publication US8076487B2, “Pyridone derivative and herbicide” (Kumiai Chemical Industry Co., Ltd., priority 2006, dated 2011).

What was measured:
Type in all cases: in vivo
[1] = tested on: Japanese bulrush (Scirpus juncoides Roxb.); assay: Test Example 1: herbicidal effect by soil application to paddy field; details: paddy field soil application; active ingredient 1,000 g per 1 hectare; wettable powder added dropwise to water surface the day after sowing; examined on the 21st day after application
Procedure, shortened: (§1)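 Under greenhouse conditions, seeds sown on puddled paddy soil in 100 cm2 pots under 3 cm of standing water received the test compound; injury was assessed with a standard scoring scheme three weeks (day 21) after treatment.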

[2] = tested on: early watergrass (Echinochloa oryzicola Vasing); assay: as above; details: paddy field soil application; active ingredient 1,000 g per 1 hectare; wettable powder added dropwise to water surface the day after sowing; examined on the 21st day after application
Procedure, shortened: as §1

[3] = tested on: heartshape false pickerelweed (Monochoria vaginalis (Burm.f.) C.Presl); assay: as above; details: paddy field soil application; active ingredient 1,000 g per 1 hectare; wettable powder added dropwise to water surface the day after sowing; examined on the 21st day after application
Procedure, shortened: as §1

[4] = tested on: barnyardgrass (Echinochloa crus-galli (L.) P. Beauv. var. crus-galli); assay: Test Example 2: herbicidal effect by soil application to upland field; details: soil surface spray, upland field soil, 1,000 g active ingredient per hectare, 21st day after application
Procedure: (§2) [table] Test Example 2 Test on Herbicidal Effect by Soil Application to Upland field In a 80 cm2 plastic pot, field soil was filled. Seeds of barnyardgrass (Echinochloa crus-galli (L.) P. Beauv. var. crus-galli), green foxtail (Setaria viridis (L.) P. Beauv.), velvetleaf (Abutilon theophrasti medicus), and slender amaranth (Amaranthus viridis L.) were sown and covered with soils. The wettable powder prepared according to Formulation Example 1 was diluted in water and a 1,000 liter equivalent amount per 1 hectare so that the active ingredient becomes 1,000 g per 1 hectare was uniformly sprayed on a soil surface using a small sprayer. Then, on the 21st day after the application to the plants grew in a greenhouse, the herbicidal effect was examined in accordance with a standard shown in Table 34.

[5] = tested on: green foxtail (Setaria viridis (L.) P. Beauv.); assay: as above; details: soil surface spray, upland field soil, 1,000 g active ingredient per hectare, 21st day after application
Procedure: as §2

[6] = tested on: slender amaranth (Amaranthus viridis L.); assay: as above; details: soil surface spray, upland field soil, 1,000 g active ingredient per hectare, 21st day after application
Procedure: as §2

[7] = tested on: velvetleaf (Abutilon theophrasti medicus); assay: as above; details: soil surface spray, upland field soil, 1,000 g active ingredient per hectare, 21st day after application
Procedure: as §2

[8] = tested on: barnyardgrass (Echinochloa crus-galli (L.) P. Beauv. var. crus-galli); assay: Test Example 3: herbicidal effect by application to upland field (foliage treatment); details: foliage treatment, 1,000 g active ingredient per 1 hectare, 14th day after application, greenhouse
Procedure, shortened: (§3)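 Two weeks after sowing in field soil under greenhouse conditions, seedlings receive a top-down foliar spray of wettable powder diluted in water at an active-ingredient rate of 1,000 g per hectare. Effect is rated against a standard 14 days post-treatment.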

[9] = tested on: green foxtail (Setaria viridis (L.) P. Beauv.); assay: as above; details: foliage treatment, 1,000 g active ingredient per 1 hectare, 14th day after application, greenhouse
Procedure, shortened: as §3

[10] = tested on: slender amaranth (Amaranthus viridis L.); assay: as above; details: foliage treatment, 1,000 g active ingredient per 1 hectare, 14th day after application, greenhouse
Procedure, shortened: as §3

[11] = tested on: velvetleaf (Abutilon theophrasti medicus); assay: as above; details: foliage treatment, 1,000 g active ingredient per 1 hectare, 14th day after application, greenhouse
Procedure, shortened: as §3

SMILES	herbicidal effect, Scirpus juncoides Roxb. [1]	herbicidal effect, Echinochloa oryzicola Vasing [2]	herbicidal effect, Monochoria vaginalis (Burm. f.) C. Presl [3]	herbicidal effect (index), Barnyardgrass [4]	herbicidal effect (index), Green Foxtail [5]	herbicidal effect (index), Slender Amaranth [6]	herbicidal effect (index), Velvetleaf [7]	herbicidal effect, Barnyardgrass [8]	herbicidal effect, Green Foxtail [9]	herbicidal effect, Slender Amaranth [10]	herbicidal effect, Velvetleaf [11]
CCCS(=O)(=O)Oc1c(C(=O)c2ccc(C(F)(F)F)n(CCS(C)(=O)=O)c2=O)cnn1C [IV-55]	4 (70 to less than 90% of herbicidal effect and crop phytotoxicity)	4 (70 to less than 90% of herbicidal effect and crop phytotoxicity)	5 (90% or more of herbicidal effect and crop phytotoxicity)	5 (90% or more of herbicidal effect and crop phytotoxicity)	5 (90% or more of herbicidal effect and crop phytotoxicity)	5 (90% or more of herbicidal effect and crop phytotoxicity)	4 (70 to less than 90% of herbicidal effect and crop phytotoxicity)				
CCCS(=O)(=O)Oc1c(C(=O)c2ccc(C(F)(F)F)n(-c3ccc([N+](=O)[O-])cc3)c2=O)cnn1C [IV-68]	4 (70 to less than 90% of herbicidal effect and crop phytotoxicity)	4 (70 to less than 90% of herbicidal effect and crop phytotoxicity)	5 (90% or more of herbicidal effect and crop phytotoxicity)	4 (70 to less than 90% of herbicidal effect and crop phytotoxicity)	4 (70 to less than 90% of herbicidal effect and crop phytotoxicity)	5 (90% or more of herbicidal effect and crop phytotoxicity)	5 (90% or more of herbicidal effect and crop phytotoxicity)				
CCCn1c(C(F)(F)F)c(C)cc(C(=O)c2cnn(C)c2O)c1=O [IV-241]	5 (90% or more of herbicidal effect and crop phytotoxicity)	5 (90% or more of herbicidal effect and crop phytotoxicity)	5 (90% or more of herbicidal effect and crop phytotoxicity)	4 (70 to less than 90% of herbicidal effect and crop phytotoxicity)	3 (50 to less than 70% of herbicidal effect and crop phytotoxicity)	5 (90% or more of herbicidal effect and crop phytotoxicity)	5 (90% or more of herbicidal effect and crop phytotoxicity)				
Cc1ccc(C(=O)C2=C(O)CCCC2=O)c(=O)n1-c1ccc(Cl)cc1 [I-233]	5 (90% or more of herbicidal effect and crop phytotoxicity)	5 (90% or more of herbicidal effect and crop phytotoxicity)	5 (90% or more of herbicidal effect and crop phytotoxicity)	4 (70 to less than 90% of herbicidal effect and crop phytotoxicity)	3 (50 to less than 70% of herbicidal effect and crop phytotoxicity)	5 (90% or more of herbicidal effect and crop phytotoxicity)	5 (90% or more of herbicidal effect and crop phytotoxicity)				
CC(C)(C)c1ccc(-n2c(C(F)(F)F)ccc(C(=O)C3=C(O)CCCC3=O)c2=O)cc1 [I-96]	5 (90% or more of herbicidal effect and crop phytotoxicity)	5 (90% or more of herbicidal effect and crop phytotoxicity)	5 (90% or more of herbicidal effect and crop phytotoxicity)	5 (90% or more of herbicidal effect and crop phytotoxicity)	5 (90% or more of herbicidal effect and crop phytotoxicity)	3 (50 to less than 70% of herbicidal effect and crop phytotoxicity)	5 (90% or more of herbicidal effect and crop phytotoxicity)				
CCCS(=O)(=O)Oc1c(C(=O)c2ccc(C(F)(F)F)n(CCC=C(Cl)Cl)c2=O)cnn1C [IV-31]				4 (70 to less than 90% of herbicidal effect and crop phytotoxicity)	3 (50 to less than 70% of herbicidal effect and crop phytotoxicity)	5 (90% or more of herbicidal effect and crop phytotoxicity)	4 (70 to less than 90% of herbicidal effect and crop phytotoxicity)				
O=C1CCCC(O)=C1C(=O)c1ccc(C(F)(F)F)n(CC2OCCO2)c1=O [I-138]	5 (90% or more of herbicidal effect and crop phytotoxicity)	5 (90% or more of herbicidal effect and crop phytotoxicity)	5 (90% or more of herbicidal effect and crop phytotoxicity)					5 (90% or more of herbicidal effect and crop phytotoxicity)	4 (70 to less than 90% of herbicidal effect and crop phytotoxicity)	5 (90% or more of herbicidal effect and crop phytotoxicity)	5 (90% or more of herbicidal effect and crop phytotoxicity)
CCn1ncc(C(=O)c2ccc(C(F)(F)F)n(C)c2=O)c1OC(C)=O [IV-208]	5 (90% or more of herbicidal effect and crop phytotoxicity)	5 (90% or more of herbicidal effect and crop phytotoxicity)	5 (90% or more of herbicidal effect and crop phytotoxicity)					5 (90% or more of herbicidal effect and crop phytotoxicity)	4 (70 to less than 90% of herbicidal effect and crop phytotoxicity)	5 (90% or more of herbicidal effect and crop phytotoxicity)	5 (90% or more of herbicidal effect and crop phytotoxicity)
Cn1ncc(C(=O)c2ccc(C(F)(F)F)n(CC3CCCO3)c2=O)c1OCc1c(F)cccc1F (stereo not drawn) [IV-136]	5 (90% or more of herbicidal effect and crop phytotoxicity)	5 (90% or more of herbicidal effect and crop phytotoxicity)	5 (90% or more of herbicidal effect and crop phytotoxicity)					4 (70 to less than 90% of herbicidal effect and crop phytotoxicity)	4 (70 to less than 90% of herbicidal effect and crop phytotoxicity)	5 (90% or more of herbicidal effect and crop phytotoxicity)	4 (70 to less than 90% of herbicidal effect and crop phytotoxicity)
CCn1c(C(F)(F)F)ccc(C(=O)C2=C(O)C3CCC(C3)C2=O)c1=O (stereo not drawn) [III-2]	5 (90% or more of herbicidal effect and crop phytotoxicity)	5 (90% or more of herbicidal effect and crop phytotoxicity)	5 (90% or more of herbicidal effect and crop phytotoxicity)					5 (90% or more of herbicidal effect and crop phytotoxicity)	5 (90% or more of herbicidal effect and crop phytotoxicity)	5 (90% or more of herbicidal effect and crop phytotoxicity)	5 (90% or more of herbicidal effect and crop phytotoxicity)
Cn1ncc(C(=O)c2ccc(C(F)(F)F)n(CC3CCCO3)c2=O)c1OS(=O)(=O)c1ccc([N+](=O)[O-])cc1 (stereo not drawn) [IV-142]	5 (90% or more of herbicidal effect and crop phytotoxicity)	5 (90% or more of herbicidal effect and crop phytotoxicity)	5 (90% or more of herbicidal effect and crop phytotoxicity)					5 (90% or more of herbicidal effect and crop phytotoxicity)	5 (90% or more of herbicidal effect and crop phytotoxicity)	5 (90% or more of herbicidal effect and crop phytotoxicity)	5 (90% or more of herbicidal effect and crop phytotoxicity)
N#CC(C(=O)c1ccc(C(F)(F)F)n(CC(F)(F)F)c1=O)=C(O)C1CC1 [V-22]				4 (70 to less than 90% of herbicidal effect and crop phytotoxicity)	4 (70 to less than 90% of herbicidal effect and crop phytotoxicity)	5 (90% or more of herbicidal effect and crop phytotoxicity)	5 (90% or more of herbicidal effect and crop phytotoxicity)				
